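48-hour exposure; five concentrations; linearly interpolated endpoints. TGI denotes the concentration required for complete inhibition of growth.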 Where a SMILES comes first, the peptide text is derived from it. [ ]: non-standard residue; d: D form. Ava = NCCCCC(=O)O; Mpa = O=C(O)CCS
How the values were obtained:
Test in all cases: DTP human tumour cell line panel, 48 h
MALME-3M melanoma = tested on: MALME-3M melanoma
IGROV1 ovarian = tested on: IGROV1 ovarian
OVCAR-4 ovarian = tested on: OVCAR-4 ovarian
HCT-116 colon = tested on: HCT-116 colon
HOP-92 NSCLC = tested on: HOP-92 NSCLC
ACHN renal = tested on: ACHN renal
M14 melanoma = tested on: M14 melanoma
SNB-19 CNS = tested on: SNB-19 CNS
HT29 colon = tested on: HT29 colon
NCI-H460 lung = tested on: NCI-H460 lung
A549 NSCLC = tested on: A549 NSCLC

Nc1cc(C2CCCc3c2[nH]c2ccccc32)ccc1O (stereo not drawn)
TGI (MALME-3M melanoma): > 100 µM
TGI (IGROV1 ovarian): > 100 µM
TGI (OVCAR-4 ovarian): > 100 µM
TGI (HCT-116 colon): > 100 µM
TGI (HOP-92 NSCLC): > 100 µM
TGI (ACHN renal): > 100 µM
TGI (M14 melanoma): > 100 µM
TGI (SNB-19 CNS): > 100 µM
TGI (HT29 colon): > 100 µM
TGI (NCI-H460 lung): > 100 µM
TGI (A549 NSCLC): > 100 µM

O=[N+]([O-])c1ccc2c(c1)nc1n2C(c2c(F)cccc2F)SC1 (stereo not drawn)
TGI (MALME-3M melanoma): > 100 µM
TGI (IGROV1 ovarian): > 100 µM
TGI (OVCAR-4 ovarian): > 100 µM
TGI (HCT-116 colon): > 100 µM
TGI (HOP-92 NSCLC): > 100 µM
TGI (ACHN renal): > 100 µM
TGI (M14 melanoma): > 100 µM
TGI (SNB-19 CNS): > 100 µM
TGI (HT29 colon): > 100 µM
TGI (NCI-H460 lung): > 100 µM
TGI (A549 NSCLC): > 100 µM

COc1cc2c(cc1OC)C(CCN)=NCC2
TGI (MALME-3M melanoma): 33.1 µM
TGI (IGROV1 ovarian): 52 µM
TGI (OVCAR-4 ovarian): 47.4 µM
TGI (HCT-116 colon): 33.7 µM
TGI (HOP-92 NSCLC): 15.1 µM
TGI (ACHN renal): 31.7 µM
TGI (M14 melanoma): 32.8 µM
TGI (SNB-19 CNS): > 100 µM
TGI (HT29 colon): 41.3 µM
TGI (NCI-H460 lung): > 100 µM
TGI (A549 NSCLC): > 100 µM

COC(=O)[C@@]12CSC[C@]1(C(=O)OC)N[C@@H](c1ccccc1O)C2
TGI (MALME-3M melanoma): > 100 µM
TGI (IGROV1 ovarian): > 100 µM
TGI (OVCAR-4 ovarian): > 100 µM
TGI (HCT-116 colon): > 100 µM
TGI (HOP-92 NSCLC): > 100 µM
TGI (ACHN renal): > 100 µM
TGI (M14 melanoma): > 100 µM
TGI (SNB-19 CNS): > 100 µM
TGI (HT29 colon): > 100 µM
TGI (NCI-H460 lung): > 100 µM
TGI (A549 NSCLC): > 100 µM

Cc1[nH]n(-c2nc(-c3ccccc3)cc(=O)[nH]2)c(=O)c1CCO
TGI (MALME-3M melanoma): > 100 µM
TGI (IGROV1 ovarian): > 100 µM
TGI (OVCAR-4 ovarian): > 100 µM
TGI (HCT-116 colon): > 100 µM
TGI (HOP-92 NSCLC): > 100 µM
TGI (ACHN renal): > 100 µM
TGI (M14 melanoma): > 100 µM
TGI (SNB-19 CNS): > 100 µM
TGI (HT29 colon): > 100 µM
TGI (NCI-H460 lung): > 100 µM
TGI (A549 NSCLC): > 100 µM

COc1cc(C[C@@]2(C)[C@@H]3CCC[C@H](CO)[C@@]3(C)CC[C@@H]2C)c(Cl)c(OC)c1
TGI (MALME-3M melanoma): 32 µM
TGI (IGROV1 ovarian): 29.1 µM
TGI (OVCAR-4 ovarian): 33.3 µM
TGI (HCT-116 colon): 24.7 µM
TGI (HOP-92 NSCLC): 30.5 µM
TGI (ACHN renal): 29.4 µM
TGI (M14 melanoma): 36.8 µM
TGI (SNB-19 CNS): 33.8 µM
TGI (HT29 colon): 26 µM
TGI (NCI-H460 lung): 36.3 µM
TGI (A549 NSCLC): 29.6 µM

CC(NC(=O)CCS)C(=O)NC(C)C(=O)NC(Cc1c[nH]c2ccccc12)C(=O)NC(Cc1c[nH]cn1)C(=O)NC(CO)C(=O)NC(Cc1c[nH]c2ccccc12)C(=O)NCCCCC(=O)NC(C)C(=O)NC(CCC(N)=O)C(=O)NC(CCCCN)C(=O)NC(C)C(=O)NC(CCCNC(=N)N)C(=O)NC(CCCCN)C(N)=O (stereo not drawn) ([Mpa]AAWHSW[Ava]AQKARK-NH2; configuration not given here)
TGI (MALME-3M melanoma): 36.9 µM
TGI (IGROV1 ovarian): > 100 µM
TGI (OVCAR-4 ovarian): > 100 µM
TGI (HCT-116 colon): > 100 µM
TGI (HOP-92 NSCLC): > 100 µM
TGI (ACHN renal): > 100 µM
TGI (M14 melanoma): > 100 µM
TGI (SNB-19 CNS): > 100 µM
TGI (HT29 colon): > 100 µM
TGI (NCI-H460 lung): > 100 µM
TGI (A549 NSCLC): > 100 µM

COc1ccc(-c2c(C#N)c(N)[nH]c(=S)c2C#N)cc1
TGI (MALME-3M melanoma): 86 µM
TGI (IGROV1 ovarian): > 100 µM
TGI (OVCAR-4 ovarian): > 100 µM
TGI (HCT-116 colon): 93.8 µM
TGI (HOP-92 NSCLC): > 100 µM
TGI (ACHN renal): > 100 µM
TGI (M14 melanoma): > 100 µM
TGI (SNB-19 CNS): > 100 µM
TGI (HT29 colon): > 100 µM
TGI (NCI-H460 lung): > 100 µM
TGI (A549 NSCLC): > 100 µM

CCO/N=C\c1ccc2oc(-c3ccccc3)cc(=O)c2c1
TGI (MALME-3M melanoma): 43.1 µM
TGI (IGROV1 ovarian): 10.7 µM
TGI (OVCAR-4 ovarian): > 85.9 µM
TGI (HCT-116 colon): 8.23 µM
TGI (HOP-92 NSCLC): 31.5 µM
TGI (ACHN renal): 37.2 µM
TGI (M14 melanoma): > 31.6 µM
TGI (SNB-19 CNS): 19.8 µM
TGI (HT29 colon): 5.34 µM
TGI (NCI-H460 lung): 4.19 µM
TGI (A549 NSCLC): 17 µM

CS(=O)(=O)OCCN(CCOS(C)(=O)=O)c1ccc(C=Nc2ccc(-c3csc(Cc4ccccc4)n3)cc2)c(Cl)c1
TGI (MALME-3M melanoma): > 72.8 µM
TGI (IGROV1 ovarian): > 74.2 µM
TGI (OVCAR-4 ovarian): > 100 µM
TGI (HCT-116 colon): 57.1 µM
TGI (HOP-92 NSCLC): 46.5 µM
TGI (ACHN renal): > 84 µM
TGI (M14 melanoma): > 62.7 µM
TGI (SNB-19 CNS): > 89.6 µM
TGI (HT29 colon): 64.5 µM
TGI (NCI-H460 lung): 43.4 µM
TGI (A549 NSCLC): > 83.7 µM

O=C(COc1cc(=O)oc2ccccc12)c1ccccc1
TGI (MALME-3M melanoma): > 100 µM
TGI (IGROV1 ovarian): 76.7 µM
TGI (OVCAR-4 ovarian): > 100 µM
TGI (HCT-116 colon): 32 µM
TGI (HOP-92 NSCLC): 33 µM
TGI (ACHN renal): 36.4 µM
TGI (M14 melanoma): > 100 µM
TGI (SNB-19 CNS): 48.9 µM
TGI (HT29 colon): 45.7 µM
TGI (NCI-H460 lung): > 100 µM
TGI (A549 NSCLC): > 100 µM

CC1=C[P+](c2ccccc2)(c2ccccc2)c2ccccc2O1
TGI (MALME-3M melanoma): 61 µM
TGI (IGROV1 ovarian): 44.9 µM
TGI (OVCAR-4 ovarian): > 100 µM
TGI (HCT-116 colon): 16.9 µM
TGI (HOP-92 NSCLC): 9.34 µM
TGI (ACHN renal): > 100 µM
TGI (M14 melanoma): > 100 µM
TGI (SNB-19 CNS): > 100 µM
TGI (HT29 colon): 15.7 µM
TGI (NCI-H460 lung): > 100 µM
TGI (A549 NSCLC): > 100 µM

Cc1cn(S(=O)(=O)c2ccccc2)c2c(OCc3ccccc3)cc([N+](=O)[O-])cc12
TGI (MALME-3M melanoma): > 100 µM
TGI (IGROV1 ovarian): > 100 µM
TGI (OVCAR-4 ovarian): > 100 µM
TGI (HCT-116 colon): > 100 µM
TGI (HOP-92 NSCLC): > 100 µM
TGI (ACHN renal): > 100 µM
TGI (M14 melanoma): > 100 µM
TGI (SNB-19 CNS): > 100 µM
TGI (HT29 colon): > 100 µM
TGI (NCI-H460 lung): > 100 µM
TGI (A549 NSCLC): > 100 µM

— PubChem BioAssay (NCI)
